Tested on: hypertriglyceridemic patients with cardiovascular disease or at high risk for cardiovascular disease
Assay: REDUCE-IT: time to first occurrence of adjudicated cardiovascular endpoint events (primary, key secondary, other secondary, tertiary; sensitivity and landmark analyses)
Format: in vivo
Source text: The following study, also referred to as the REDUCE-IT clinical trial, was a large cardiovascular (CV) outcome trial designed to assess CV risk reduction benefit of AMR101 treatment (commercially known as VASCEPA®) versus placebo on the 5-point primary composite endpoint: CV death, non-fatal stroke, non-fatal myocardial infarction (MI), coronary revascularizations, or unstable angina requiring hospitalization.
A multi-center, prospective, randomized, double-blind, placebo-controlled, parallel-group study was performed to evaluate the effect of AMR101 (4 g per day) on cardiovascular health and mortality in hypertriglyceridemic patients with cardiovascular disease or at high risk for cardiovascular disease. The intended expanded indication of the study was treatment with AMR101 as an add-on to statin therapy to reduce the risk of cardiovascular events in patients with clinical cardiovascular disease or with multiple risk factors for cardiovascular disease.
The primary objective of this study was, in patients at LDL-C goal while on statin therapy, with established cardiovascular disease (CVD) or at high risk for CVD, and hypertriglyceridemia (e.g., fasting triglycerides (TG) ≥200 mg/dL and <500 mg/dL), to evaluate the effect of AMR101 4 g daily on time from randomization to first occurrence of any component of the composite of the following major CV events: CV death; nonfatal MI; (including silent MI; electrocardiograms (ECGs) were performed annually for the detection of silent MIs); nonfatal stroke; coronary revascularization; and unstable angina determined to be caused by myocardial ischemia by invasive/non-invasive testing and requiring emergent hospitalization.
The key secondary objective of this study was to evaluate the effect of AMR101 4 g daily on the time from randomization to the first occurrence of the composite of following major CV events: CV death, nonfatal MI (including silent MI), and nonfatal stroke.
Other secondary objectives for this study were to evaluate the effect of therapy on time from randomization to the first occurrence of the following individual or composite endpoints: composite of CV death or nonfatal MI (including silent MI); fatal or nonfatal MI (including silent MI); non-elective coronary revascularization represented as the composite of emergent or urgent classifications; CV death; unstable angina determined to be caused by myocardial ischemia by invasive/non-invasive testing and requiring emergent hospitalization; fatal or nonfatal stroke; composite of total mortality, nonfatal MI (including silent MI), or nonfatal stroke; and total mortality.
The key tertiary objectives for this study were to evaluate the effect of AMR101 4 g daily from baseline and percent change from baseline in fasting triglycerides and LDL-C. […]

[1] = ITT population, listed as Icosapent Ethyl
[2] = clinically adjudicated arrhythmia sequelae, safety population
[3] = clinically adjudicated arrhythmia sequelae, safety population, vs placebo
[4] = determined programmatically, ITT
[5] = excludes patients with Type 1 or Type 2 diabetes at baseline, ITT
[6] = tertiary endpoint, first occurrence, ITT
[7] = vs placebo, listed as Icosapent Ethyl
[8] = vs placebo, listed as icosapent ethyl

Structure (SMILES): CC/C=C\C/C=C\C/C=C\C/C=C\C/C=C\CCCC(=O)OCC [AMR101, eicosapentaenoic acid ethyl ester]
- New Heart Failure (newly emergent CHF), HR (95% CI) [1]: 0.95 (0.77, 1.17)
- New Heart Failure (newly emergent CHF), patients with event [1]: (4.1%)
- New Heart Failure Requiring Hospitalization, HR (95% CI) [1]: 0.97 (0.77, 1.22)
- New Heart Failure Requiring Hospitalization, patients with event [1]: (3.4%)
- New Onset Hypertension, HR (95% CI) [1]: 0.86 (0.41-1.80)
- Peripheral Artery Disease, HR (95% CI) [1]: 0.97 (0.78-1.21)
- Peripheral Artery Disease, patients with event [1]: (3.8) %
- Sudden Cardiac Death, HR (95% CI) [1]: 0.69 (0.50, 0.96)
- Sudden Cardiac Death, patients with event [1]: (1.5%)
- Transient Ischemic Attack, patients with event [1]: (1.6%)
- Urgent Revascularization, HR (95% CI) [1]: 0.66 (0.54, 0.79)
- Urgent Revascularization, patients with event [1]: (4.4%)
- Deaths with undetermined cause (Safety population): 36 (0.9) n (%)
- Non-CV deaths (Safety population): 100 (2.4) n (%)
- Total mortality (Safety population, N = 4089): 274 (6.7) n (%)
- Coronary Revascularization, events (%) (clinically adjudicated arrhythmia sequelae, composite of emergent, urgent, elective, salvage, safety population): (9.2%)
- Any Myocardial Infarction, events (%) [2]: (6.1%)
- Any Stroke, events (%) [2]: (2.4%)
- Cardiac Arrest, events (%) [2]: (0.5%)
- Carotid Revascularization, events (%) [2]: (0.8%)
- Sudden Cardiac Death, events (%) [2]: (1.5%)
- Transient Ischemic Attack, events (%) [2]: (1.6%)
- Any Myocardial Infarction, HR (95% CI) [3]: 0.69 (0.58 to 0.81)
- Any Stroke, HR (95% CI) [3]: 0.72 (0.55 to 0.93)
- Cardiac Arrest, HR (95% CI) [3]: 0.52 (0.31 to 0.86)
- Sudden Cardiac Death, HR (95% CI) [3]: 0.69 (0.50 to 0.96)
- Transient Ischemic Attack, HR (95% CI) [3]: 1.32 (0.91 to 1.92)
- Coronary Revascularization, HR (95% CI) Icosapent Ethyl/Placebo (composite of emergent, urgent, elective, salvage, ITT): 0.66 (0.58-0.76)
- Coronary Revascularization, patients with event (%) (composite of emergent, urgent, elective, salvage, first occurrence, ITT): (9.2) %
- New Onset Hypertension, HR (95% CI) Icosapent Ethyl/Placebo [4]: 0.86 (0.41-1.80)
- New Onset Hypertension, patients with event (%) [4]: (0.3) %
- New Onset Type 2 Diabetes, HR (95% CI) Icosapent Ethyl/Placebo [5]: 1.04 (0.73-1.47)
- New Onset Type 2 Diabetes, patients with event (%) [5]: (3.8) %
- Primary endpoint, risk reduction (post hoc analysis excluding patients with diarrhea): 25%
- Cardiac Arrest, HR (95% CI) Icosapent Ethyl/Placebo (tertiary endpoint, ITT): 0.52 (0.31-0.86)
- Elective Revascularization, HR (95% CI) Icosapent Ethyl/Placebo (tertiary endpoint, ITT): 0.68 (0.57-0.82)
- Emergent Revascularization, HR (95% CI) Icosapent Ethyl/Placebo (tertiary endpoint, ITT): 0.62 (0.42-0.92)
- Ischemic Stroke, HR (95% CI) Icosapent Ethyl/Placebo (tertiary endpoint, ITT): 0.64 (0.49-0.85)
- Newly Emergent CHF Requiring Hospitalization, HR (95% CI) Icosapent Ethyl/Placebo (tertiary endpoint, ITT): 0.97 (0.77-1.22)
- Newly Emergent CHF, HR (95% CI) Icosapent Ethyl/Placebo (tertiary endpoint, ITT): 0.95 (0.77-1.17)
- Peripheral Artery Disease, HR (95% CI) Icosapent Ethyl/Placebo (tertiary endpoint, ITT): 0.97 (0.78-1.21)
- Salvage Revascularization, HR (95% CI) Icosapent Ethyl/Placebo (tertiary endpoint, ITT): 0.00 (0.00-0.00)
- Sudden Cardiac Death, HR (95% CI) Icosapent Ethyl/Placebo (tertiary endpoint, ITT): 0.69 (0.50-0.96)
- Transient Ischemic Attack, HR (95% CI) Icosapent Ethyl/Placebo (tertiary endpoint, ITT): 1.32 (0.91-1.92)
- Urgent Revascularization, HR (95% CI) Icosapent Ethyl/Placebo (tertiary endpoint, ITT): 0.66 (0.54-0.79)
- Amputation for PVD, patients with event (%) [6]: (0.5) %
- Cardiac Arrest, patients with event (%) [6]: (0.5) %
- Cardiac Arrhythmia Requiring Hospitalization of ≥24 Hours, patients with event (%) [6]: (4.6) %
- Carotid Revascularization, patients with event (%) [6]: (0.8) %
- Elective Revascularization, patients with event (%) [6]: (4.7) %
- Emergent Revascularization, patients with event (%) [6]: (1.0) %
- Hemorrhagic Stroke, patients with event (%) [6]: (0.3) %
- Ischemic Stroke, patients with event (%) [6]: (2.0) %
- Newly Emergent CHF Requiring Hospitalization, patients with event (%) [6]: (3.4) %
- Newly Emergent CHF, patients with event (%) [6]: (4.1) %
- Peripheral Artery Disease, patients with event (%) [6]: (3.8) %
- Salvage Revascularization, patients with event (%) [6]: (0.0) %
- Sudden Cardiac Death, patients with event (%) [6]: (1.5) %
- Transient Ischemic Attack, patients with event (%) [6]: (1.6) %
- Urgent Revascularization, patients with event (%) [6]: (4.4) %
- Total mortality utilizing known vital status data (through 31 May 2018, assessed as of database lock): 7.3%
- Key secondary composite endpoint, relative risk reduction (vs placebo): 26.5%
- Primary composite endpoint, relative risk reduction (vs placebo): 24.8%
- Key secondary composite endpoint, relative risk reduction [7]: 26%
- Primary composite endpoint, relative risk reduction [7]: 25%
- Key secondary composite endpoint, relative risk reduction [8]: 26%
- Primary composite endpoint, relative risk reduction [8]: 25%

Source: patent US12427134B2, “Methods of reducing the risk of cardiovascular events in a subject with atrial fibrillation and/or atrial flutter” (priority 2019, dated 2025)
